Reference: patent US7420056B2, “Substituted bicyclic imidazo-3-ylamine compounds” (Gruenenthal GmbH, priority 2004, dated 2008)
Where a name gives a salt, the structure may show the parent alone.

target: mGluR5 receptor (Sus scrofa, UniProt I3LUI7); assay: Affinity for the mGluR5 receptor: inhibition of 3[H]-MPEP binding in pig brain homogenate; conditions: 10 μM compound, 5 nM 3[H]-MPEP, read-out: mGluR5 receptor inhibition of ^3[H]-MPEP binding [10 μM] in % at a concentration of the example compounds of 10 μM
Experimental: 1. Method for Determining Affinity for the mGluR5 Receptor
Pig brain homogenate is produced by homogenisation (Polytron Pt 3000, Kinematica AG, 10,000 revolutions per minute for 90 seconds) of pig brain hemispheres without medulla, cerebellum and pons in a buffer of pH 8.0 (30 mM Hepes, Sigma, order number H3375+1 tablet Complete Roche Diagnostics, order number 1836145 made up to 100 ml) in a ratio of 1:20 (brain weight/volume) and differential centrifugation at 900×g and 40,000×g. 450 μg of protein from brain homogenate is incubated in each case in 250 μl incubation batches in 96-well microtitre plates with 5 nM 3[H]-MPEP (Tocris, order number R1212) (MPEP=2-methyl-6-[…]) and the compounds to be investigated (10 μM in the test) in the buffer (as above) at room temperature for 60 minutes.
The batches are then filtered with the assistance of a Brandel Cell Harvester (Brandel, Grade Robotic 9600) on Unifilter plates with glass filter mats (Perkin Elmer, order number 6005177) and then washed 3 times with buffer (as above) using 250 μl per sample. The filter plates are then dried for 60 minutes at 55° C. Then 30 μl of Ultima Gold™ scintillating material (Packard BioScience, order number 6013159) is added per well and after 3 hours the samples are measured using the β counter (Microbeta, Perkin Elmer). Nonspecific binding is determined by the addition of 10 μM MPEP (Tocris, order number 1212).

mGluR5 receptor, sequence (I3LUI7 19-1212): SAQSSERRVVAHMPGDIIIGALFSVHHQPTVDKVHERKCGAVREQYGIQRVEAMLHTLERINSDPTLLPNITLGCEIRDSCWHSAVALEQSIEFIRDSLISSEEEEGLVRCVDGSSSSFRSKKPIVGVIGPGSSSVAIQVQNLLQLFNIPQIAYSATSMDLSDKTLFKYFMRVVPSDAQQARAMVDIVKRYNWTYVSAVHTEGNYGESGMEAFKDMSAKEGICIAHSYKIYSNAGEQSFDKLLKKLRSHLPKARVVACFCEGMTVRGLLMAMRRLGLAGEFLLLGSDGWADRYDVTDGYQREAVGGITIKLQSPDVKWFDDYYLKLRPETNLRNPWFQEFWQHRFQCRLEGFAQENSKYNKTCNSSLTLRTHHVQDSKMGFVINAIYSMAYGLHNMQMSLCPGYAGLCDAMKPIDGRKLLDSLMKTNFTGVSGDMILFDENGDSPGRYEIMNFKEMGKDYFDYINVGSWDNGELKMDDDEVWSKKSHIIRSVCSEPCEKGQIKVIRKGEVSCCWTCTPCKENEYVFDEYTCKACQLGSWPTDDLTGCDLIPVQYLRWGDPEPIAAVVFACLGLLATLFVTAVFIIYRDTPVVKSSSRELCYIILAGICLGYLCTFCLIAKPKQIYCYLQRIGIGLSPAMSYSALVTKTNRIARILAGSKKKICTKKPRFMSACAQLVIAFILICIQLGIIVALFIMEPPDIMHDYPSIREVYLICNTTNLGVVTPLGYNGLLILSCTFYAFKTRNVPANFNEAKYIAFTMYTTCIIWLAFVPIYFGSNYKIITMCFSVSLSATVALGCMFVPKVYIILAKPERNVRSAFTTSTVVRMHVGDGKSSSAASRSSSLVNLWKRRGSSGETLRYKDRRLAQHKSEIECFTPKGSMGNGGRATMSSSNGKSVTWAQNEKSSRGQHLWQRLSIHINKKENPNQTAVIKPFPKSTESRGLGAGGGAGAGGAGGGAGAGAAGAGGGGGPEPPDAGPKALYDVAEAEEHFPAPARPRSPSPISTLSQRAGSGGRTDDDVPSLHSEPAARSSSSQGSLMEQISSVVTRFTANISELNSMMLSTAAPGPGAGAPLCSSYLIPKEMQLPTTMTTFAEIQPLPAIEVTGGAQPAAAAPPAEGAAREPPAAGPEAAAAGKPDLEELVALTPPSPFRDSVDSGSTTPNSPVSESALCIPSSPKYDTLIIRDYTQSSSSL

Row | SMILES | inhibition at 10 µM [%]
1 | Cc1cc(Br)cn2c(NCCc3cccs3)c(-c3cc(C#Cc4ccccc4)cs3)nc12 [Example 234, 6-bromo-8-methyl-2-(4-(phenylethynyl)thiophen-2-yl)-N-(2-(thiophen-2-yl)ethyl)imidazo[1,2-a]pyridin-3-amine] | 64
2 | Cc1cccn2c(NC(C)c3ccccc3)c(-c3ccc(C#Cc4ccccc4)s3)nc12 (stereo not shown) [Example 35, [8-methyl-2-(5-phenylethynyl-thiophen-2-yl)-imidazo[1,2-a]pyridin-3-yl]-(1-phenyl-ethyl)-amine] | 95
3 | Cc1cc(C#Cc2ccc(-c3nc4ccccn4c3NC(C)(C)C)s2)ccc1F [Example 348, N-tert-butyl-2-(5-((4-fluoro-3-methylphenyl)ethynyl)thiophen-2-yl)imidazo[1,2-a]pyridin-3-amine hydrochloride] | 44
4 | C(#Cc1ccc(-c2nc3cnccn3c2NC2CCCC2)s1)c1ccccc1 [Example 1, cyclopentyl-[2-(5-phenylethynyl-thiophen-2-yl)-imidazo[1,2-a]pyrazin-3-yl]-amine] | 52
5 | C(#Cc1ccc(-c2nc3ccccn3c2NC2CCCCC2)cn1)c1ccccc1 [Example 283, N-cyclohexyl-2-(6-(phenylethynyl)pyridin-3-yl)imidazo[1,2-a]pyridin-3-amine] | 82
6 | Cc1cc(Br)c2nc(-c3cccc(C#Cc4ccccn4)c3)c(NC3CCCC3)n2c1 [Example 211, 8-bromo-N-cyclopentyl-6-methyl-2-(3-(pyridin-2-ylethynyl)phenyl)imidazo[1,2-a]pyridin-3-amine] | 82
7 | C(#Cc1ccc(-c2nc3cnccn3c2NCC2CCCCC2)s1)c1ccccc1 [Example 8, cyclohexylmethyl-[2-(5-phenylethynyl-thiophen-2-yl)-imidazo[1,2-a]pyrazin-3-yl]-amine] | 100
8 | C(#Cc1ccc(-c2nc3cnccn3c2NC2CCCCC2)s1)c1ccccc1 [Example 87, N-cyclohexyl-2-(5-(phenylethynyl)thiophen-2-yl)imidazo[1,2-a]pyrazin-3-amine] | 35
9 | C(#Cc1ccc(-c2nc3ncccn3c2NCC2CCCCC2)s1)c1ccccc1 [Example 9, cyclohexylmethyl-[2-(5-phenylethynyl-thiophen-2-yl)-imidazo[1,2-a]pyrimidin-3-yl]-amine] | 98
10 | C(#Cc1ccc(-c2nc3ccccn3c2NC2CCCC2)cn1)c1ccccc1 [Example 281, N-cyclopentyl-2-(6-(phenylethynyl)pyridin-3-yl)imidazo[1,2-a]pyridin-3-amine] | 83
11 | CC(C)(C)Nc1c(-c2ccc(C#Cc3cc(F)cc(F)c3)s2)nc2ccccn12 [Example 349, N-tert-butyl-2-(5-((3,5-difluorophenyl)ethynyl)thiophen-2-yl)imidazo[1,2-a]pyridin-3-amine] | 39
12 | Fc1ccc(Nc2c(-c3cccc(C#Cc4ccccn4)c3)nc3ccccn23)cc1 [Example 263, N-(4-fluorophenyl)-2-(3-(pyridin-2-ylethynyl)phenyl)imidazo[1,2-a]pyridin-3-amine] | 85
13 | CC(C)c1ccn2c(NC3CCCCC3)c(-c3ccc(C#Cc4ccccn4)o3)nc2c1 [Example 308, N-cyclohexyl-7-isopropyl-2-(5-(pyridin-2-ylethynyl)furan-2-yl)imidazo[1,2-a]pyridin-3-amine] | 70
14 | C(#Cc1ccccn1)c1cccc(-c2nc3ncccn3c2NC2CCCCC2)c1 [Example 254, N-cyclohexyl-2-(3-(pyridin-2-ylethynyl)phenyl)imidazo[1,2-a]pyrimidin-3-amine] | 77
15 | Cc1ccc2nc(-c3ccc(C#Cc4ccccc4)s3)c(NC(C)c3ccccc3)n2c1 (stereo not shown) [Example 27, [6-methyl-2-(5-phenylethynyl-thiophen-2-yl)-imidazo[1,2-a]pyridin-3-yl]-(1-phenyl-ethyl)-amine] | 82
16 | COc1ccc(CNc2c(-c3ccc(C#Cc4ccccc4)s3)nc3ccccn23)cc1 [Example 16, (4-methoxy-benzyl)-[2-(5-phenylethynyl-thiophen-2-yl)-imidazo[1,2-a]pyridin-3-yl]-amine] | 93
17 | Cc1cccc(C#Cc2cccc(-c3nc4cccc(C)n4c3NC(C)(C)C)c2)n1 [Example 290, N-tert-butyl-5-methyl-2-(3-((6-methylpyridin-2-yl)ethynyl)phenyl)imidazo[1,2-a]pyridin-3-amine] | 88
18 | COc1ccccc1CNc1c(-c2ccc(C#Cc3ccccc3)s2)nc2nc(C)ccn12 [Example 40, (2-methoxy-benzyl)-[7-methyl-2-(5-phenylethynyl-thiophen-2-yl)-imidazo[1,2-a]pyrimidin-3-yl]-amine] | 87
19 | Clc1ccc2nc(-c3cccc(C#Cc4ccccn4)c3)c(NC3CCCCC3)n2c1 [Example 312, 6-chloro-N-cyclohexyl-2-(3-(pyridin-2-ylethynyl)phenyl)imidazo[1,2-a]pyridin-3-amine] | 64
20 | CCCC(C)(C)Nc1c(-c2cc(C#Cc3ccccc3)cs2)nc2c(OCc3ccccc3)cccn12 [Example 220, 8-(benzyloxy)-N-(2-methylpentan-2-yl)-2-(4-(phenylethynyl)thiophen-2-yl)imidazo[1,2-a]pyridin-3-amine] | 31
21 | Cc1ccc2nc(-c3ccc(C#Cc4ccccn4)s3)c(NC(C)(C)C)n2c1 [Example 268, N-tert-butyl-6-methyl-2-(5-(pyridin-2-ylethynyl)thiophen-2-yl)imidazo[1,2-a]pyridin-3-amine] | 75

same assay, conditions: 3[H]-MPEP binding

Row | SMILES | IC50 [nM]
22 | Cc1cc(C#Cc2ccccc2)sc1-c1nc2cnccn2c1NC(C)(C)C [Example 182, N-tert-butyl-2-(3-methyl-5-(phenylethynyl)thiophen-2-yl)imidazo[1,2-a]pyrazin-3-amine hydrochloride] | 8850
23 | CC(C)(C)Nc1c(-c2ccc(C#Cc3cccc([N+](=O)[O-])c3)s2)nc2cnccn12 [Example 150, N-tert-butyl-2-(5-((3-nitrophenyl)ethynyl)thiophen-2-yl)imidazo[1,2-a]pyrazin-3-amine hydrochloride] | 110
24 | Cc1cccc(C#Cc2ccc(-c3nc4cnccn4c3NC(C)(C)CC(C)(C)C)s2)n1 [Example 86, 2-(5-((6-methylpyridin-2-yl)ethynyl)thiophen-2-yl)-N-(2,4,4-trimethylpentan-2-yl)imidazo[1,2-a]pyrazin-3-amine] | 320
25 | CC(C)(C)Nc1c(-c2ccc(C#Cc3nccs3)s2)nc2cnccn12 [Example 133, N-tert-butyl-2-(5-(thiazol-2-ylethynyl)thiophen-2-yl)imidazo[1,2-a]pyrazin-3-amine] | 15
26 | CCNc1c(-c2ccc(C#Cc3ccccc3)s2)nc2cnccn12 [Example 68, ethyl-[2-(5-phenylethynyl-thiophen-2-yl)-imidazo[1,2-a]pyrazin-3-yl]-amine] | 2320
27 | CN(C)c1c(-c2ccc(C#Cc3ccccc3)s2)nc2cnccn12 [Example 65, dimethyl-[2-(5-phenylethynyl-thiophen-2-yl)-imidazo[1,2-a]pyrazin-3-yl]-amine] | 3840
28 | CC(C)(C)CC(C)(C)Nc1c(-c2ccc(C#Cc3ccccc3)s2)nc2ncccn12 [Example 85, 2-(5-(phenylethynyl)thiophen-2-yl)-N-(2,4,4-trimethylpentan-2-yl)imidazo[1,2-a]pyrimidin-3-amine] | 2010
29 | Cc1cccc(C#Cc2ccc(-c3nc4cnccn4c3NC(C)(C)C)s2)n1 [Example 158, N-tert-butyl-2-(5-((6-methylpyridin-2-yl)ethynyl)thiophen-2-yl)imidazo[1,2-a]pyrazin-3-amine hydrochloride] | 33
30 | CC(C)(C)Nc1c(-c2ccc(C#Cc3cccc(C#N)c3)s2)nc2cnccn12 [Example 140, 3-((5-(3-(tert-butylamino)imidazo[1,2-a]pyrazin-2-yl)thiophen-2-yl)ethynyl)benzonitrile hydrochloride] | 26
31 | CC(C)(C)Nc1c(-c2ccc(C#Cc3cccc(C4OCCO4)c3)s2)nc2ccccn12 [Example 334, tert-butyl-{2-[5-(3-[1,3]dioxolan-2-yl-phenylethynyl)-thiophen-2-yl]-imidazo[1,2-a]pyridin-3-yl}-amine] | 10000
32 | Cc1cccc2nc(-c3ccc(C#Cc4ccccc4)s3)c(NC(C)(C)C)n12 [Example 102, N-tert-butyl-5-methyl-2-(5-(phenylethynyl)thiophen-2-yl)imidazo[1,2-a]pyridin-3-amine] | 8850
33 | CCCNc1c(-c2ccc(C#Cc3ccccc3)s2)nc2cnccn12 [Example 69, propyl-[2-(5-phenylethynyl-thiophen-2-yl)-imidazo[1,2-a]pyrazin-3-yl]-amine] | 2930
34 | CC(C)(C)Nc1c(-c2ccc(C#Cc3cccc(CO)c3)s2)nc2ccccn12 [Example 341, {3-[5-(3-tert-butylamino-imidazo[1,2-a]pyridin-2-yl)-thiophen-2-ylethynyl]-phenyl}-methanol hydrochloride] | 240
